# Data: patent US8304422B2, “Compositions and methods for inhibition of the JAK pathway” (Rigel Pharmaceuticals, Inc., priority 2007, dated 2012)
# Tested on: Ramos B-Cell Line Stimulated with IL-4
# Test: Assay for Ramos B-Cell Line Stimulated with IL-4 (CD23 upregulation, FACS; Example 2)
# Type: cell-based
# Details: human Ramos B cells, IL-4 50 units/mL for 20-24 hours, anti-CD23-PE
# Text: One means of assaying for such inhibition is detection of the effect of the 2,4-pyrimidinediamine compounds on the upregulation of downstream gene products. In the Ramos/IL4 assay, B-cells are stimulated with the cytokine Interleukin-4 (IL-4) leading to the activation of the JAK/Stat pathway through phosphorylation of the JAK family kinases, JAK1 and JAK3, which in turn phosphorylate and activate the transcription factor Stat-6. […] To study the effect of inhibitors (e.g., the 2,4-substituted pyrimindinediamine compounds described herein) on the JAK1 and JAK3 kinases, human Ramos B cells are stimulated with human IL-4. 20 to 24 hours post stimulation, cells are stained for upregulation of CD23 and analyzed using flow cytometry (FACS). […] An exemplary assay of this type is described in greater detail in Example 2.
# B-cells stimulated with cytokine Interleukin-4 (IL-4) activate the JAK/Stat pathway through phosphorylation of the JAK family kinases, JAK-1 and JAK-3, which in turn phosphorylate and activate the transcription factor Stat-6. […] To study the effect of inhibitors on the JAK family kinases, human Ramos B cells are stimulated with human IL-4.
# The Ramos B-cell line was acquired from ATCC (ATCC Catalog No. CRL-1596). The cells were cultured in RPMI 1640 (Cellgro, MediaTech, Inc., Herndon, Va., Cat No. 10-040-CM) with 10% fetal bovine serum (FBS), heat inactivated (JRH Biosciences, Inc, Lenexa, Kans., Cat No. 12106-500M) according to ATCC propagation protocol. Cells were maintained at a density of 3.5×10^5. The day before the experiment, Ramos B-cells were diluted to 3.5×10^5 cells/mL to ensure that they were in a logarithmic growth phase.
# Cells were spun down and suspended in RPMI with 5% serum. 5×10^4 cells were used per point in a 96-well tissue culture plate. Cells were pre-incubated with compound or DMSO (Sigma-Aldrich, St. Louis, Mo., Cat No. D2650) vehicle control for 1 hour in a 37° C. incubator.
# Cells were then stimulated with IL-4 (Peprotech Inc., Rocky Hill, N.J., Cat No. 200-04) for a final concentration of 50 units/mL for 20-24 hours. Cells were then spun down and stained with anti-CD23-PE (BD Pharmingen, San Diego, Calif., Cat No. 555711) and analyzed by FACS. Detection was performed using a BD LSR I System Flow Cytometer, purchased from Becton Dickinson Biosciences of San Jose, Calif.
row,Compound,IC50
1,"C#CCNS(=O)(=O)c1cccc(Nc2nc(Nc3cc(OC)c(OC)c(OC)c3)ncc2F)c1 [I-1, 5-Fluoro-N4-[3-(prop-2-ynylaminosulfonyl)phenyl]-N2-(3,4,5-trimethoxyphenyl)-2,4-pyrimidinediamine]",140 nM
2,"C#CCNS(=O)(=O)c1cccc(Nc2nc(Nc3cc(C)c(OC)c(C)c3)ncc2F)c1 [I-4, N2-(3,5-Dimethyl-4-methoxyphenyl)-5-fluoro-N4-[3-(prop-2-ynylaminosulfonyl)phenyl]-2,4-pyrimidinediamine]",95.5 nM

# Tested on: BaF3 V617F cells; UKE-1
# Test: Proliferation Assay (Cell Titer-Glo; Example 7)
# Type: cell-based
# Details: proliferation 72 hours, inhibit JAK2 activity, cell line (BaF3 V617F or UKE-1) not stated
# In short: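 Proliferation IC50s reflect 72 h compound exposure at 37 °C, read by Cell Titer-Glo luminescence. Compound was serially diluted 3-fold from a 5 mM DMSO stock and added as a 2× solution; BaF3 V617F cells were grown in RPMI/10% FBS, UKE-1 in Iscove's DMEM with FBS, equine serum and hydrocortisone.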
row,Compound,IC50
1,"CCNS(=O)(=O)NCc1ccc(Nc2nc(Nc3ccc(C4CCN(C)CC4)cc3)ncc2Cl)cc1 [II-115, 5-chloro-N4-[(4-(ethylamino)sulfonylamino)methylphenyl]-N2-[4-(1-methyl-4-piperidinyl)pheny]-2,4-pyrimidinediamine]",409 nM
2,"Cc1cnc(Nc2ccc(C3=NCCN3)cc2)nc1Nc1ccc2c(c1)C(NS(=O)(=O)C1CC1)CC2 (racemic) [V-6, (+/−)-N4-[1-(Cyclopropylsulfonylamino)indan-6-yl]-N2-[4-(4,5-dihydro-1H-imidazol-2-yl)phenyl]-5-methyl-2,4-pyrimidinediamine]",1120 nM
3,"CCCOc1c(C)cc(Nc2ncc(Cl)c(Nc3ccc(CNS(=O)(=O)NC4CC4)cc3)n2)cc1C [II-157, 5-Chloro-N4-[4-((N-cyclopropylamino)sulfonylamino)methylphenyl]-N2-(3,5-dimethyl-4-propoxyphenyl)-2,4-pyrimidinediamine]",138 nM
4,"CN1CCC(c2ccc(Nc3ncc(Cl)c(Nc4ccc(CNS(=O)(=O)N(C)C)cc4)n3)cc2)CC1 [II-98, 5-Chloro-N4-[(4-(dimethylamino)sulfonylamino)methylphenyl]-N2-[4-(1-methyl-4-piperidinyl)pheny]-2,4-pyrimidinediamine]",264 nM
5,"5-Chloro-N4-[3-(N-cyclopropylsulfonylamino)methylphenyl]-N2-[4-(N-methylpiperizin-4-yl)phenyl]-2,4-pyrimidinediamine [II-191]",466 nM
6,"Cc1cc(CNS(=O)(=O)C2CC2)ccc1Nc1nc(Nc2ccc(N3CCN(C)CC3)c(C)c2)ncc1Cl [II-153, 5-Chloro-N4-[2-methyl-4-(N-cyclopropylsulfonylamino)methylphenyl]-N2-[3-methyl-4-(4-methyl-1-piperazinyl)phenyl]-2,4-pyrimidinediamine]",3330 nM
7,"Cc1cc(OC(C)C)cc(C)c1Nc1ncc(Cl)c(Nc2ccc(CCNS(=O)(=O)C3CC3)cc2)n1 [II-48, 5-Chloro-N4[4-(N-cyclopropylsulfonylamino)ethylphenyl]-N2-[4-(2,6-dimethyl-isopropoxy)phenyl]-2,4-pyrimidinediamine]",698 nM
8,"COc1c(C)cc(Nc2ncc(C(F)(F)F)c(Nc3ccc(CNS(=O)(=O)C4CC4)cc3)n2)cc1C [II-126, N4-[4-(N-Cyclopropylsulfonylamino)methylphenyl]-N2-(3,5-dimethyl-4-methoxyphenyl)-5-trifluoromethyl-2,4-pyrimidinediamine]",1510 nM
9,Cc1cnc(Nc2ccc(N3CCN(C)CC3)nc2)nc1Nc1ccc(CCNS(=O)(=O)C2CC2)cc1 [II-69],1810 nM
10,"CCOc1c(C)cc(Nc2ncc(Cl)c(Nc3ccc(CNS(=O)(=O)C4CC4)cc3C)n2)cc1C [II-151, 5-Chloro-N2-(3,5-dimethyl-4-ethoxyphenyl)-N4-[2-methyl-4-(N-cyclopropylsulfonylamino)methylphenyl]-2,4-pyrimidinediamine]",398 nM
11,"Cc1cc(CNS(=O)(=O)C2CC2)ccc1Nc1nc(Nc2ccc(N3CCN(C)CC3)cc2)ncc1Cl [II-152, 5-Chloro-N4-[2-methyl-4-(N-cyclopropylsulfonylamino)methylphenyl]-N2-[4-(4-methyl-1-piperazinyl)phenyl]-2,4-pyrimidinediamine]",357 nM
12,"CCNS(=O)(=O)NCc1ccc(Nc2nc(Nc3ccc(N4CCN(C)CC4)cc3)ncc2Cl)c(C)c1 [II-144, 5-Chloro-N4-[2-methyl-4-(ethylaminosulfonylamino)methylphenyl]-N2-[4-(4-methyl-1-piperazinyl)phenyl]-2,4-pyrimidinediamine]",549 nM
13,"CN1CCN(c2ccc(Nc3ncc(Cl)c(Nc4ccc(CCNS(=O)(=O)C5CC5)cc4)n3)c(F)c2)CC1 [II-56, 5-Chloro-N4[4-(N-cyclopropylsulfonylamino)ethylphenyl]-N2-[4-(4-methylpiperazino)-2-fluorophenyl]-2,4-pyrimidinediamine]",639 nM
14,"CCN1CCN(c2ccc(Nc3ncc(C)c(Nc4ccc(CNS(=O)(=O)C5CC5)cc4)n3)cc2)CC1 [II-204, 5-Methyl-N4-[4-(N-cyclopropylsulfonylamino)methylphenyl]-N2-[4-(N-ethylpiperizin-4-yl)phenyl]-2,4-pyrimidinediamine]",175 nM
15,"COc1cc(Nc2ncc(F)c(Nc3ccc(CNS(=O)(=O)C4CC4)cc3)n2)cc(Cl)c1OC [II-196, 5-Fluoro-N4-[4-(N-cyclopropylsulfonylamino)methylphenyl]-N2-[3,4-dimethoxy-5-chlorophenyl]-2,4-pyrimidinediamine]",597 nM
16,"Cc1cnc(Nc2cnccc2N2CCN(C)CC2)nc1Nc1ccc(CNS(=O)(=O)C2CC2)cc1 [II-215, 5-Methyl-N4-[4-(N-cyclopropylsulfonylamino)methylphenyl]-N2-[4-(N-methylpiperizin-4-yl)pyridine-3-yl]-2,4-pyrimidinediamine]",1520 nM
17,"COc1c(Cl)cc(Nc2ncc(C)c(Nc3ccc4c(c3)C(NS(=O)(=O)C3CC3)CC4)n2)cc1Cl (racemic) [V-8, (+/−)-N4-[1-(Cyclopropylsulfonylamino)indan-6-yl]-N2-(3,5-dichloro-4-methoxyphenyl)-5-methyl-2,4-pyrimidinediamine]",3030 nM
18,"COc1cc(C)c(Nc2ncc(Cl)c(Nc3ccc(CCNS(=O)(=O)C4CC4)cc3)n2)c(C)c1 [II-46, 5-Chloro-N4[4-(N-cyclopropylsulfonylamino)ethylphenyl]-N2-[4-(2,6-dimethyl-methoxy)phenyl]-2,4-pyrimidinediamine]",592 nM
19,"CN1CCC(c2ccc(Nc3ncc(Cl)c(Nc4cccc(CNS(=O)(=O)C5CC5)c4)n3)cc2)CC1 [II-190, 5-Chloro-N4-[3-(N-cyclopropylsulfonylaminomethyl)phenyl]-N2-[4-(N-methylpiperidin-4-yl)phenyl]-2,4-pyrimidinediamine]",701 nM
20,"CCNS(=O)(=O)NCc1cccc(Nc2nc(Nc3ccc(N4CCN(C)CC4)cc3)ncc2F)c1 [II-138, N4-[3-((Ethylamino)sulfonylamino)methylphenyl]-5-fluoro-N2-[4-(4-methyl-1-piperazinyl)phenyl]-2,4-pyrimidinediamine]",726 nM
21,"CCOc1c(C)cc(Nc2ncc(Cl)c(Nc3ccc(CNS(=O)(=O)NC4CC4)cc3)n2)cc1C [II-155, 5-Chloro-N4-[4-((N-cyclopropylamino)sulfonylamino)methylphenyl]-N2-(3,5-dimethyl-4-ethoxyphenyl)-2,4-pyrimidinediamine]",83.1 nM
22,"5-Chloro-N4-[4-(N-cyclopropylsulfonylamino)methylphenyl]-N2-[4-[N-(methansulfonyl)piperizin-4-ylphenyl]-2,4-pyrimidinediamine [II-207]",384 nM
23,"COc1cc(Nc2ncc(Cl)c(Nc3ccc(CNS(=O)(=O)NC4CC4)cc3)n2)cc(C)c1OC [II-158, 5-Chloro-N4-[4-((N-cyclopropylamino)sulfonylamino)methylphenyl]-N2-(3,4-dimethoxy-5-methylphenyl)-2,4-pyrimidinediamine]",158 nM
24,COc1cc(C)c(Nc2ncc(C)c(Nc3ccc(CCNS(=O)(=O)C4CC4)cc3)n2)c(C)c1 [II-62],438 nM
25,"5-Chloro-N4-[4-(N-cyclopropylsulfonylamino)methylphenyl]-N2-[3-methyl-4-(N-methylpiperizin-4-yl)phenyl]-2,4-pyrimidinediamine [II-203]",1500 nM
26,"O=S(=O)(NCc1ccc(Nc2nc(Nc3ccc(CN4CCOCC4)cc3)ncc2Cl)cc1)C1CC1 [II-223, 5-Chloro-N4-[4-(N-cyclopropylsulfonylamino)methylphenyl]-N2-[4-(1-morpholinomethyl)phenyl]-2,4-pyrimidinediamine]",733 nM
27,CCN1CCN(c2ccc(Nc3ncc(C)c(Nc4ccc(CCNS(=O)(=O)C5CC5)cc4)n3)c(C(F)(F)F)c2)CC1 [II-74],1490 nM
